Structures can show the parent of a compound that is named as a salt. Where two headings read alike, the source gives them in different places.
Assays:
[1] = tested on: interferon regulatory factor (IRF) pathway in THP-1 dual cells; assay: THP-1 Dual reporter assay, IRF pathway (luciferase); format: cell-based; details: Homo sapiens, THP1-Dual, read-out: THP1 Dual EC50 (μM) IRF
Protocol: (§1) Compounds of the present invention were tested for their activity using THP-1 dual cells (Invivogen, cat no. thpd-nfis) allowing for simultaneous study of NF-κB pathway and the interferon regulatory factor (IRF) pathway. THP-1 dual cells contain luciferase reporter gene under the control of an ISG54 (interferon-stimulated gene) minimal promoter in conjunction with five interferon-stimulated response elements and a secreted embryonic alkaline phosphatase reporter gene under the control an IFN (interferon)-β minimal promoter fused to five copies of the NF-κB consensus transcriptional response element with three copies of the c-Rel binding site. Following 18 h of stimulation with STING agonist, medium was collected and transferred onto fresh cell culture plate. To verify activity of the IRF pathway, luminescence activity was measured with standard laboratory plate reader immediately after addition 10 μl of the medium to 40 or 50 μl of luminescence reagent (Invivogen, cat. No. rep-qlc2). To verify activity of NF-κB pathway, 10 or 20 μl of the medium was mixed with 80 μl of a detection medium (Invivogen, cat. No. rep-qb2) and incubated for 1 or 2 hours at 37° C. in a humidified atmosphere containing 5% CO2. Next, absorbance at 630 or 655 nm was recorded using standard laboratory plate reader.

[2] = tested on: NF-κB pathway in THP-1 dual cells; assay: THP-1 Dual reporter assay, NF-κB pathway (SEAP); format: cell-based; details: Homo sapiens, THP1-Dual, read-out: THP1 Dual EC50 (μM) NFkB
Protocol: as §1

[3] = 18 h stimulation, absorbance at 630 or 655 nm

Question: With `Cc1ccc(N2CCC[C@H](N(Cc3ccnc(C)c3)Cc3cn(C4CC4)c4cc(N5CC[C@H](CNC(=O)CCOCCOCCOCCOCCN)C5)c(F)cc4c3=O)C2)cn1` [Example 15A, 1-amino-N-{[(3R)-1-[1-cyclopropyl-6-fluoro-3-({[(3S)-1-(6-methylpyridin-3-yl)piperidin-3-yl][(2-methylpyridin-4-yl)methyl]amino}methyl)-4-oxo-1,4-dihydroquinolin-7-yl]pyrrolidin-3-yl]methyl}-3,6,9,12-tetraoxapentadecan-15-amide] as the compound, how does the EC50 ([1]; 18 h stimulation, luminescence) read?
Answer: 1 to 10 µM

Question: What about the EC50 [2, 3] of the same compound?
Answer: 1 to 10 µM

Question: `Cc1ccc(N2CCC[C@H](N(Cc3ccnc(C)c3)Cc3cn(C4CC4)c4cc(N5CCC(N(C)C(=O)OCc6ccc(NC(=O)[C@H](CCCNC(N)=O)NC(=O)[C@@H](NC(=O)CCOCCOCCOCCN=[N+]=[N-])C(C)C)cc6)CC5)c(F)cc4c3=O)C2)cn1` [Example 19A] was tested. Which EC50 ([1]; 18 h stimulation, luminescence) did it give?
Answer: 1 to 10 µM

Question: What about the EC50 [2, 3] of the same compound?
Answer: 1 to 10 µM

Question: With `C#CCOCCOCCOCCOCCOCCC(=O)O[C@H]1CCCN(c2cc3c(cc2F)c(=O)c(CN(Cc2ccnc(C)c2)[C@H]2CCCN(c4ccc(C)nc4)C2)cn3C2CC2)C1` [Example 31A, (3S)-1-[1-cyclopropyl-6-fluoro-3-({[(3S)-1-(6-methylpyridin-3-yl)piperidin-3-yl][(2-methylpyridin-4-yl)methyl]amino}methyl)-4-oxo-1,4-dihydroquinolin-7-yl]piperidin-3-yl 4,7,10,13,16-pentaoxanonadec-18-ynoate] as the compound, how does the EC50 ([1]; 18 h stimulation, luminescence) read?
Answer: < 1 µM

Question: What about the EC50 [2, 3] of the same compound?
Answer: < 1 µM

Question: `C#CCOCCOCCOCCOCCOCCC(=O)Nc1ccc(CNC(=O)O[C@H]2CCCN(c3cc4c(cc3F)c(=O)c(CN(Cc3ccnc(C)c3)[C@H]3CCCN(c5ccc(C)nc5)C3)cn4C3CC3)C2)cc1` [Example 31B, (3S)-1-[1-cyclopropyl-6-fluoro-3-({[(3S)-1-(6-methylpyridin-3-yl)piperidin-3-yl][(2-methylpyridin-4-yl)methyl]amino}methyl)-4-oxo-1,4-dihydroquinolin-7-yl]piperidin-3-yl N-{[4-(4,7,10,13,16-pentaoxanonadec-18-ynamido)phenyl]methyl}carbamate] was tested. Which EC50 ([1]; 18 h stimulation, luminescence) did it give?
Answer: < 1 µM

Question: What about the EC50 [2, 3] of the same compound?
Answer: < 1 µM

Question: What does the source list for `Cc1cc(CN(Cc2c[nH]c3ccccc3c2=O)[C@H]2CCCN(c3ccc(N)nc3)C2)ccn1` [Example 38, 3-({[(3S)-1-(6-aminopyridin-3-yl)piperidin-3-yl][(2-methylpyridin-4-yl)methyl]amino}methyl)-1,4-dihydroquinolin-4-one]?
Answer: EC50 ([1]; 18 h stimulation, luminescence): < 1 µM; EC50 [2, 3]: < 1 µM

Question: Which EC50 ([1]; 18 h stimulation, luminescence) does the source give for `Cc1ccc(N2CCC[C@H](N(Cc3ccnc(C)c3)Cc3cn(C4CC4)c4cc(N5CC[C@H](O)C5)c(F)cc4c3=O)C2)cn1` [Example 39, 1-cyclopropyl-6-fluoro-7-[(3S)-3-hydroxypyrrolidin-1-yl]-3-({[(3S)-1-(6-methylpyridin-3-yl)piperidin-3-yl][(2-methylpyridin-4-yl)methyl]amino}methyl)-1,4-dihydroquinolin-4-one hydrochloride] here?
Answer: < 1 µM

Question: What about the EC50 [2, 3] of the same compound?
Answer: < 1 µM

Question: With `Cc1cc(CN(Cc2cn(C)c3ccccc3c2=O)[C@H]2CCCN(c3ccc(CO)nc3)C2)ccn1` [Example 40, 3-({[(3S)-1-[6-(hydroxymethyl)pyridin-3-yl]piperidin-3-yl][(2-methylpyridin-4-yl)methyl]amino}methyl)-1-methyl-1,4-dihydroquinolin-4-one] as the compound, how does the EC50 ([1]; 18 h stimulation, luminescence) read?
Answer: 1 to 10 µM

Question: And the EC50 [2, 3]?
Answer: 1 to 10 µM

Question: Which results are given for `Cc1ccc(N2CCC[C@H](N(Cc3ccnc(C)c3)Cc3cn(CCO)c4ccccc4c3=O)C2)cn1` [Example 41, 1-(2-hydroxyethyl)-3-({[(3S)-1-(6-methylpyridin-3-yl)piperidin-3-yl][(2-methylpyridin-4-yl)methyl]amino}methyl)-1,4-dihydroquinolin-4-one]?
Answer: EC50 ([1]; 18 h stimulation, luminescence): 1 to 10 µM; EC50 [2, 3]: 1 to 10 µM

Question: With `Cc1ccc(N2CCC[C@H](N(Cc3ccnc(C)c3)Cc3cn(C(C)C)c4nc(N5CC[C@@H](O)C5)c(F)cc4c3=O)C2)cn1` [Example 42, 6-fluoro-7-[(3R)-3-hydroxypyrrolidin-1-yl]-3-({[(3S)-1-(6-methylpyridin-3-yl)piperidin-3-yl][(2-methylpyridin-4-yl)methyl]amino}methyl)-1-(propan-2-yl)-1,4-dihydro-1,8-naphthyridin-4-one] as the compound, how does the EC50 ([1]; 18 h) read?
Answer: < 1 µM

Question: And the EC50 ([2]; 18 h)?
Answer: < 1 µM

Question: Which results are given for `Cc1cc(CN(Cc2cn(C)c3ccccc3c2=O)[C@H]2CCCN(c3ccc(CCO)nc3)C2)ccn1` [Example 43, 3-({[(3S)-1-[6-(2-hydroxyethyl)pyridin-3-yl]piperidin-3-yl][(2-methylpyridin-4-yl)methyl]amino}methyl)-1-methyl-1,4-dihydroquinolin-4-one]?
Answer: EC50 ([1]; 18 h): 1 to 10 µM; EC50 ([2]; 18 h): 1 to 10 µM

Question: How did the EC50 ([1]; 18 h) turn out when `Cc1cc(CN(Cc2cn(C)c3ccccc3c2=O)[C@H]2CCCN(c3cncc(CO)c3)C2)ccn1` [Example 44] was run?
Answer: > 10 µM

Question: What about the EC50 ([2]; 18 h) of the same compound?
Answer: > 10 µM

Question: For `C#CCOCCOCCOCCOCCOCCC(=O)OCCOc1cc2c(cc1F)c(=O)c(CN(Cc1ccnc(C)c1)[C@H]1CCCN(c3ccc(C)nc3)C1)cn2C1CC1` [Example 47A, 2-{[1-cyclopropyl-6-fluoro-3-({[(3S)-1-(6-methylpyridin-3-yl)piperidin-3-yl][(2-methylpyridin-4-yl)methyl]amino}methyl)-4-oxo-1,4-dihydroquinolin-7-yl]oxy}ethyl 4,7,10,13,16-pentaoxanonadec-18-ynoate], which EC50 ([1]; 18 h stimulation, luminescence) is on record?
Answer: < 1 µM

Question: And the EC50 [2, 3]?
Answer: < 1 µM

Question: Which results are given for `Cc1ccc(N2CCC[C@H](N(Cc3ccnc(C)c3)Cc3cn(C4CC4)c4cc(OCCOC(=O)NCc5ccc(NC(=O)CCOCCOCCOCCNC(=O)OC(C)(C)C)cc5)c(F)cc4c3=O)C2)cn1` [Example 47B, 2-{[1-cyclopropyl-6-fluoro-3-({[(3S)-1-(6-methylpyridin-3-yl)piperidin-3-yl][(2-methylpyridin-4-yl)methyl]amino}methyl)-4-oxo-1,4-dihydroquinolin-7-yl]oxy}ethyl N-{[4-(3-{2-[2-(2-{[(tert-butoxy)carbonyl]amino}ethoxy)ethoxy]ethoxy}propanamido)phenyl]methyl}carbamate]?
Answer: EC50 ([1]; 18 h): < 1 µM; EC50 ([2]; 18 h): < 1 µM

Question: Which results are given for `Cc1cc(CN(Cc2cn(C3CC3)c3cc(N4CC[C@@H](O)C4)c(F)cc3c2=O)[C@H]2CCCN(c3noc(C)n3)C2)ccn1` [Example 48, 1-cyclopropyl-6-fluoro-7-[(3R)-3-hydroxypyrrolidin-1-yl]-3-({[(3S)-1-(5-methyl-1,2,4-oxadiazol-3-yl)piperidin-3-yl][(2-methylpyridin-4-yl)methyl]amino}methyl)-1,4-dihydroquinolin-4-one hydrochloride]?
Answer: EC50 ([1]; 18 h stimulation, luminescence): < 1 µM; EC50 [2, 3]: 1 to 10 µM

Question: What does the source list for `Cc1ccc(N2CCC[C@H](N(Cc3ccnc(C)c3)Cc3cn(C(C)C)c4cc(N5CC[C@@H](O)C5)ccc4c3=O)C2)cn1` [Example 52, 7-[(3R)-3-hydroxypyrrolidin-1-yl]-3-({[(3S)-1-(6-methylpyridin-3-yl)piperidin-3-yl][(2-methylpyridin-4-yl)methyl]amino}methyl)-1-(propan-2-yl)-1,4-dihydroquinolin-4-one]?
Answer: EC50 ([1]; 18 h stimulation, luminescence): < 1 µM; EC50 [2, 3]: < 1 µM

Question: Which EC50 ([1]; 18 h stimulation, luminescence) does the source give for `Cc1ccc(N2CCC[C@H](N(Cc3ccnc(C)c3)Cc3cn(C(C)C)c4cc(N5CCN(CCO)CC5)ccc4c3=O)C2)cn1` [Example 53, 7-[4-(2-Hydroxyethyl)piperazin-1-yl]-3-({[(3S)-1-(6-methylpyridin-3-yl)piperidin-3-yl][(2-methylpyridin-4-yl)methyl]amino}methyl)-1-(propan-2-yl)-1,4-dihydroquinolin-4-one] here?
Answer: < 1 µM

Question: What about the EC50 [2, 3] of the same compound?
Answer: < 1 µM

Question: With `Cc1ccc(N2CCC[C@H](N(Cc3ccnc(C)c3)Cc3cn(C(C)C)c4cc(N5C[C@@H](O)[C@@H](O)C5)ccc4c3=O)C2)cn1` [Example 54, 7-[(3R,4S)-3,4-dihydroxypyrrolidin-1-yl]-3-({[(3S)-1-(6-methylpyridin-3-yl)piperidin-3-yl][(2-methylpyridin-4-yl)methyl]amino}methyl)-1-(propan-2-yl)-1,4-dihydroquinolin-4-one] as the compound, how does the EC50 ([1]; 18 h stimulation, luminescence) read?
Answer: < 1 µM

Question: What about the EC50 [2, 3] of the same compound?
Answer: 1 to 10 µM

Question: For `C#CCOCCOCCOCCOCCOCCC(=O)Nc1ccc(COC(=O)N(C)[C@@H]2CCN(c3cc4c(cc3F)c(=O)c(CN(Cc3ccnc(C)c3)[C@H]3CCCN(c5ccc(C)nc5)C3)cn4C3CC3)C2)cc1` [Example 55A], which EC50 ([1]; 18 h stimulation, luminescence) is on record?
Answer: < 1 µM

Question: What about the EC50 [2, 3] of the same compound?
Answer: < 1 µM

Question: Which EC50 ([1]; 18 h stimulation, luminescence) does the source give for `Cc1ccc(N2CCC[C@H](N(Cc3ccnc(C)c3)Cc3cn(C4CC4)c4cc(N5CC[C@@H](N(C)CCOCCOCCOCCOCCNC(=O)OC(C)(C)C)C5)c(F)cc4c3=O)C2)cn1` [Example 55B, tert-Butyl N-{2-[(3R)-1-[1-cyclopropyl-6-fluoro-3-({[(3S)-1-(6-methylpyridin-3-yl)piperidin-3-yl][(2-methylpyridin-4-yl)methyl]amino}methyl)-4-oxo-1,4-dihydroquinolin-7-yl]pyrrolidin-3-yl]-5,8,11,14-tetraoxa-2-azahexadecan-16-yl}carbamate] here?
Answer: < 1 µM

Question: And the EC50 [2, 3]?
Answer: < 1 µM
